What follows are molecules tested against T1, human TLR9 (Homo sapiens, UniProt Q9NR96) (assay: HEK293-Blue-hTLR-9 cells assay (SEAP reporter, ODN2006 stimulation)). Conditions: HEK293-Blue-hTLR9 cells, ODN2006 ligand, 20 hrs incubation, antagonist.
T1 sequence (Q9NR96 26-1032): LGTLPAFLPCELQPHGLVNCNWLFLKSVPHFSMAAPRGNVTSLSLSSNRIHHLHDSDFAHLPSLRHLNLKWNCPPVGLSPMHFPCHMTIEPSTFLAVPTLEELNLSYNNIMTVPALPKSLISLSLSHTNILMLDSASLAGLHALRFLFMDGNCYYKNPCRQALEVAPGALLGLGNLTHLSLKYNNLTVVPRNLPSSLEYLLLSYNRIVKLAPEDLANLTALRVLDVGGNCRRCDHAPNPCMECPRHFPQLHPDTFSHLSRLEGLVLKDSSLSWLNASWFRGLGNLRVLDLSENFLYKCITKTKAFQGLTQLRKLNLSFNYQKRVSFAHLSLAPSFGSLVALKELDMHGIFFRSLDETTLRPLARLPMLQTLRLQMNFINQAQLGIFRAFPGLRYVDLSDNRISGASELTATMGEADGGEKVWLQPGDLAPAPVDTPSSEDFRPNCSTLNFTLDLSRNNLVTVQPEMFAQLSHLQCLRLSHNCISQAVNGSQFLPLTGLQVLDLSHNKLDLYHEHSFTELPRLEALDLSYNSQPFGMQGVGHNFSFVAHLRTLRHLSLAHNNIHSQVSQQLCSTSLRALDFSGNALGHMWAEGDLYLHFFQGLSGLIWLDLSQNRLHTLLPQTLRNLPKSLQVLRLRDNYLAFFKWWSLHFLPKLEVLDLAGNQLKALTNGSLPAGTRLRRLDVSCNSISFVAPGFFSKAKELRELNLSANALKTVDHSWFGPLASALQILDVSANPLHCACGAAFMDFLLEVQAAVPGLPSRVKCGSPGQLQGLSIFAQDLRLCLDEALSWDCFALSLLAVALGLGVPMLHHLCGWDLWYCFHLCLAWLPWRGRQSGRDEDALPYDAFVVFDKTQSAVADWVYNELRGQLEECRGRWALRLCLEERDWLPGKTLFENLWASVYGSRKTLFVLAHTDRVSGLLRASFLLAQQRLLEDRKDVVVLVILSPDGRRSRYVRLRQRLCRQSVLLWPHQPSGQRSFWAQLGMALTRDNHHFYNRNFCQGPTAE
Assay type: cell-based
Description: The following tests were carried out in order to determine the activity of the compounds of formula (I) in HEK293-Blue-hTLR-7/8/9 cells assay.
HEK293-Blue-hTLR-9 Cells Assay:
A stable HEK293-Blue-hTLR-9 cell line was purchased from InvivoGen (Cat. #: hkb-htlr9, San Diego, Calif., USA). These cells were originally designed for studying the stimulation of human TLR9 by monitoring the activation of NF-κB. A SEAP (secreted embryonic alkaline phosphatase) reporter gene was placed under the control of the IFN-β minimal promoter fused to five NF-κB and AP-1-binding sites. The SEAP was induced by activating NF-κB and AP-1 via stimulating HEK-Blue hTLR9 cells with TLR9 ligands. Therefore the reporter expression was declined by TLR9 antagonist under the stimulation of a ligand, such as ODN2006 (Cat. #: tlrl-2006-1, Invivogen, San Diego, Calif., USA), for incubation of 20 hrs. The cell culture supernatant SEAP reporter activity was determined using QUANTI-Blue™ kit (Cat. #: rep-qb1, Invivogen, San Diego, Calif., USA) at a wavelength of 640 nm, a detection medium that turns purple or blue in the presence of alkaline phosphatase.
HEK293-Blue-hTLR9 cells were incubated at a density of […] cells/mL in a volume of 170 μL in a 96-well plate in Dulbecco's Modified Eagle's medium (DMEM) containing 4.5 g/L glucose, 50 U/mL penicillin, […], 2 mM L-glutamine, 10% (v/v) heat-inactivated fetal bovine serum with addition of 20 μL test compound in a serial dilution in the presence of final DMSO at 1% and 10 μL of 20 uM ODN2006 in above DMEM, perform incubation under 37° C. in a CO2 incubator for 20 hrs. Then 20 μL of the supernatant from each well was incubated with 180 μL Quanti-blue substrate solution at 37° C. for 2 hrs and the absorbance was read at 620˜655 nm using a spectrophotometer. The signalling pathway that TLR9 activation leads to downstream NF-κB activation has been widely accepted, and therefore similar reporter assay was modified for evaluating TLR9 antagonist.
For `C[C@@H]1CN(c2ccc(C#N)c3ncsc23)C[C@H](CN2CCC3(CCCNC3)C2)O1` (stereo partly drawn) [Example 1, 7-[(2S,6R)-2-(2,9-diazaspiro[4.5]decan-2-ylmethyl)-6-methyl-morpholin-4-yl]-1,3-benzothiazole-4-carbonitrile], the IC50 was 0.087 µM. `C[C@@H]1CN(c2ccc(C#N)c3ncsc23)C[C@H](CN2CCC(N)CC2)O1` [Example 2, 7-[(2S,6R)-2-[(4-amino-1-piperidyl)methyl]-6-methyl-morpholin-4-yl]-1,3-benzothiazole-4-carbonitrile] gave an IC50 of 0.3 µM. `C[C@@H]1CN(c2ccc(C#N)c3ncsc23)C[C@H](CN2CCC3(CCCNC3)CC2)O1` [Example 3, 7-[(2S,6R)-2-(2,9-diazaspiro[5.5]undecan-9-ylmethyl)-6-methyl-morpholin-4-yl]-1,3-benzothiazole-4-carbonitrile] showed an IC50 of 0.077 µM. `C[C@@H]1CN(c2ccc(C#N)c3ncsc23)C[C@H](CN2CC3(CCCNC3)C2)O1` [Example 4, 7-[(2S,6R)-2-(2,8-diazaspiro[3.5]nonan-2-ylmethyl)-6-methyl-morpholin-4-yl]-1,3-benzothiazole-4-carbonitrile] was tested, and the IC50 was 0.101 µM. `C[C@@H]1CN(c2ccc(C#N)c3ncsc23)C[C@H](CN2CCC3(CCNCC3)CC2)O1` [Example 5, 7-[(2S,6R)-2-(3,9-diazaspiro[5.5]undecan-3-ylmethyl)-6-methyl-morpholin-4-yl]-1,3-benzothiazole-4-carbonitrile] gave an IC50 of 0.145 µM. Work on `C[C@@H]1CN(c2ccc(C#N)c3ncsc23)C[C@H](CN2CCC3(CCNC3)CC2)O1` [Example 6, 7-[(2S,6R)-2-(2,8-diazaspiro[4.5]decan-8-ylmethyl)-6-methyl-morpholin-4-yl]-1,3-benzothiazole-4-carbonitrile] yielded an IC50 of 0.098 µM. With `C[C@@H]1CN(c2ccc(C#N)c3ncsc23)C[C@H](CN2CCC(N3CCCCC3)CC2)O1` [Example 7, 7-[(2R,6S)-2-methyl-6-[[4-(1-piperidyl)-1-piperidyl]methyl]morpholin-4-yl]-1,3-benzothiazole-4-carbonitrile] the IC50 was 0.118 µM. `C[C@@H]1CN(c2ccc(C#N)c3ncsc23)C[C@H](CN2[C@@H]3CC[C@H]2C[C@@H](N)C3)O1` [Example 8, Endo-7-[(2S,6R)-2-[[(1R,5S)-3-amino-8-azabicyclo[3.2.1]octan-8-yl]methyl]-6-methyl-morpholin-4-yl]-1,3-benzothiazole-4-carbonitrile] was tested, and the IC50 was 0.109 µM. `C[C@@H]1CN(c2ccc(C#N)c3ncsc23)C[C@H](CN2[C@@H]3CC[C@H]2C[C@H](N)C3)O1` [Example 9, Exo-7-[(2S,6R)-2-[[(1S,5R)-3-amino-8-azabicyclo[3.2.1]octan-8-yl]methyl]-6-methyl-morpholin-4-yl]-1,3-benzothiazole-4-carbonitrile] gave an IC50 of 0.065 µM. Work on `C[C@@H]1CN(c2ccc(C#N)c3ncsc23)C[C@H](CN2CCC3(CCCN(C)C3)CC2)O1` [Example 10, 7-[(2R,6S)-2-methyl-6-[(2-methyl-2,9-diazaspiro[5.5]undecan-9-yl)methyl]morpholin-4-yl]-1,3-benzothiazole-4-carbonitrile] yielded an IC50 of 0.077 µM. With `C[C@@H]1CN(c2ccc(C#N)c3ncsc23)C[C@H](C(=O)NC2CCN(C)CC2)O1` [Example 11, (2R,6R)-4-(4-cyano-1,3-benzothiazol-7-yl)-6-methyl-N-(1-methyl-4-piperidyl)morpholine-2-carboxamide] the IC50 was 17.5 µM. Molecule `C[C@@H]1CN(c2ccc(C#N)c3ncsc23)C[C@H](C(=O)NCC2CN(C)CCO2)O1` (stereo partly drawn) [Example 12, (2R,6R)-4-(4-cyano-1,3-benzothiazol-7-yl)-6-methyl-N-[(4-methylmorpholin-2-yl)methyl]morpholine-2-carboxamide] has an IC50 of 36.8 µM.

From US11639352B2, “Benzothiazole compounds for the treatment of autoimmune diseases” (Hoffmann-La Roche Inc., priority 2018, dated 2023)
